The text below walks through data of patent US12409158B2, “Combination therapy for treating cancer” (GONGWIN BIOPHARM CO., LTD, priority 2022, dated 2025).

One assay has as its system phosphorylated ERK. Kind of assay: Western blot of phosphorylated ERK in M5 tumors. The format is in vivo, BALB/c nude mice. The following applies: vs control group. As to the method:
The mice were observed daily for clinical signs, weighed them every three days, and at one month after tumor-cell implantation euthanized them with an overdose of anesthetic combined with carbon dioxide. Immediately before sacrificing the mice, the blood was collected from them under anesthesia for hematological assessment. After euthanizing the mice, the tumors were excised immediately. The tumor specimens were divided into two groups. One group was treated with 10% formalin and embedded the specimens in paraffin. These specimens were investigated by hematoxylin and eosin staining; terminal deoxyribonucleotidyl transferase (TdT)-mediated biotin-16-dUTP nick-end labeling (TUNEL assay; APO-BrdU TUNEL Assay Kit, BD Pharmingen, San Diego, CA, USA); and IHC for IL-1β, TNF-α, TGF-β, and CD44, using primary antibodies against these factors (Merck, Billerica, MA, USA). Protein expression was assessed via IHC with the […] mouse/rabbit polymer detection system produced by BioTnA (Kaohsiung, Taiwan). A high-resolution digital microscope (Moticam 2300, Motic Instruments, Richmond, Canada) equipped with Motic Images Plus (version 2.0) was used to capture and analyze the images. […] Protein expression and phosphorylation were quantified with ImageJ (National Institutes of Health, Bethesda, […], USA).
In general terms: Immunoblotting shows a protein as a band on a membrane.

A further assay has as its system IL-1β. Briefly: IHC analysis of IL-1β in M5 tumors. The settings on record: relative to the control group. The format is in vivo, BALB/c nude mice. As to the method: (§1) The mice were observed daily for clinical signs, weighed them every three days, and at one month after tumor-cell implantation euthanized them with an overdose of anesthetic combined with carbon dioxide. Immediately before sacrificing the mice, the blood was collected from them under anesthesia for hematological assessment. After euthanizing the mice, the tumors were excised immediately. The tumor specimens were divided into two groups. One group was treated with 10% formalin and embedded the specimens in paraffin. These specimens were investigated by hematoxylin and eosin staining; terminal deoxyribonucleotidyl transferase (TdT)-mediated biotin-16-dUTP nick-end labeling (TUNEL assay; APO-BrdU TUNEL Assay Kit, BD Pharmingen, San Diego, CA, USA); and IHC for IL-1β, TNF-α, TGF-β, and CD44, using primary antibodies against these factors (Merck, Billerica, MA, USA). Protein expression was assessed via IHC with the […] mouse/rabbit polymer detection system produced by BioTnA (Kaohsiung, Taiwan). A high-resolution digital microscope (Moticam 2300, Motic Instruments, Richmond, Canada) equipped with Motic Images Plus (version 2.0) was used to capture and analyze the images. The other groups of tumor specimens were first minced coarsely and homogenized, and then stored in a freezer at -80° C.

The test system of another assay is CD44. Briefly: IHC analysis of CD44 in M5 tumors. The following applies: relative to the control group. The format is in vivo, BALB/c nude mice. The method, then: as §1
In a further assay the test system is CD45. Kind of assay: IHC analysis of CD45 in M5 tumors. It counts as in vivo, BALB/c nude mice. The following applies: IHC staining, FIGS. 11A and 11B.
A further assay concerns H520 cells. Briefly: H520 lung squamous cell carcinoma xenograft, first experiment. It counts as in vivo, nude-BALB/c mice. As to the method: Male nude-BALB/c mice at six-weeks of age were obtained from National Laboratory Animal Breeding and Research Center, Taipei, Taiwan. Mice were housed in each cage and provided them with sterile food and water. The mice were maintained under a constant temperature (22±2° C.) and relative humidity (55±5%), with a 12:12 h light: dark cycle. The Institutional Animal Care and Use Committee (IACUC) at the National […] University (IACUC Approval No. 110003) reviewed and approved the study protocol, in which procedures were in accordance with the Guidelines for the Care and Use of Laboratory Animals published by the Taiwanese Ministry of Health and Welfare. Human non-small cell lung carcinoma cell line (H520) was purchased from ATCC Cell Bank. H520 cells were incubated in RPMI 1640 medium (cat no. 61870044; Gibco; Thermo Fisher, Inc) supplemented with 10% fetal bovine serum in an environmental containing 5% CO2 at 37° C. The experimental treatments were commenced after the implanted H520 cells had formed a detectable tumor mass, which was assessed on day 7 after implantation. […] The growth of the tumors was assessed every seven days by measuring their largest and smallest diameters, and calculated their volume according to the following formula: […] […]

Molecules are shown by their SMILES.

For the compound `N.N.[Cl][Pt][Cl]` [Cisplatin, cisplatin, reference compound], in the assay with phosphorylated ERK, the “phosphorylated ERK expression” value was “significantly higher”. This compound gave an IL-1β activity reduction in the assay on IL-1β of 29.7%. Moreover, in the assay with CD44, the CD44 expression reduction entry is “about 40.9%”. In addition, the “CD45 activity, times higher than the control group” value in the assay on CD45 was found to be 1.4 times.

For `Cc1ccc(S(N)(=O)=O)cc1` [PTS, p-Toluenesulfonamide], the “phosphorylated ERK expression” value in the assay on phosphorylated ERK is recorded as “significantly higher”. Further, the IL-1β activity reduction in the assay with IL-1β is listed as 26.5%. Also, in the assay with CD44, the CD44 expression reduction is listed as about 34.4%. In the assay with CD45, the “CD45 activity, times higher than the control group” value is 1.3 times. Further, in the assay with H520 cells (PTS100 330 mg/kg IT B.I.W., gemcitabine 160 mg/kg and cisplatin 3 mg/kg IP QW), the tumor growth inhibition worked out at 39.2%. Also, the “tumor volume / tumor burden” value with H520 cells (compared to control, FIG. 12A) is recorded as “slight decrease”.
